Here are results for 7 compounds from article PMC3417054 (Cell host & microbe, 2010).

The term EC50 denotes the concentration at which the effect is half-maximal. The low end stands for an effect from little substance, the high end for a need for much substance.

“Also recorded” adds a separate entry of the source.

Test [1] has as its target T1, FPR2/ALX-transfected HL60 (Homo sapiens, UniProt P25090).
T1 sequence (P25090 1-351): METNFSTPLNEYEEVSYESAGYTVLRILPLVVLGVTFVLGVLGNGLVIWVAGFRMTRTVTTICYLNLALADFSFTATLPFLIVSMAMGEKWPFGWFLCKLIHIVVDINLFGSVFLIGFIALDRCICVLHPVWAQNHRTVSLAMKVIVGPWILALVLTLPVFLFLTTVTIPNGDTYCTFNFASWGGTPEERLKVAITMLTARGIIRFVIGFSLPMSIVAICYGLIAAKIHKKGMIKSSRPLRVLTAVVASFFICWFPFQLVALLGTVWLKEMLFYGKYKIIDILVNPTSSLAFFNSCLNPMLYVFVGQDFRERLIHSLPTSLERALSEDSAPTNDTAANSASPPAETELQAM
Description: Ca2+ flux in FPR2/ALX-transfected HL60 cells. It is filed as cell-based. Background: Calcium assays in cells follow changes in intracellular calcium, usually with a dye or a luminescent sensor.

For test [2], the target named is T2, human neutrophils (Homo sapiens, UniProt P25090).
T2 sequence (P25090 1-351): T1 sequence (P25090 1-351)
In words: Ca2+ flux in human neutrophils. It counts as cell-based. To be noted: 37°C; for pEC50, calcium ion flux: human neutrophils, Fluo-3-AM, flow cytometry, means +/- SD of at least three independent experiments, nonlinear regression, 11-18 points.

Test [3] has as its target T2, human neutrophils. Description: Neutrophil chemotaxis. To be noted: 3-µm trans-well filter, fluorescence-labeled neutrophils. It counts as cell-based.
In test [4] the test system is peritoneal granulocyte infiltration, S. aureus USA300. In words: Mouse peritonitis model, S. aureus USA300. To be noted: WRW4 prior to infection, two-hours infection period. It counts as in vivo.
In another test the test system is human FPR2/ALX. To be noted: ref Karlsson et al., 2006; Onnheim et al., 2008; cited from earlier work.
For another test, the system named is mouse neutrophils. In words: Ca2+ flux in mouse neutrophils. It is filed as cell-based. To be noted: calcium flux.
Test [5] concerns mouse FPR paralog (Fpr-rs2). To be noted: ref Karlsson et al., 2006; Onnheim et al., 2008; cited from earlier work.
Test [6] concerns mice, cows, pigs, dogs, and cats. To be noted: ref Styrt, 1989; cited from earlier work.
Another test concerns FPR1-transfected HL60. Description: Ca2+ flux in FPR1-transfected HL60 cells. It is filed as cell-based, human. To be noted: 62.5-500 nM formylated PSMs, 2 µM non-formylated PSMs; fMLF 20 nM.

With `CSCC[C@H](N)C(=O)N[C@@H](CCC(=O)O)C(=O)N[C@@H](Cc1ccccc1)C(=O)N[C@H](C(=O)N[C@@H](C)C(=O)N[C@@H](CCCCN)C(=O)N[C@@H](CC(C)C)C(=O)N[C@@H](Cc1ccccc1)C(=O)N[C@@H](CCCCN)C(=O)N[C@@H](Cc1ccccc1)C(=O)N[C@@H](Cc1ccccc1)C(=O)N[C@@H](CCCCN)C(=O)N[C@@H](CC(=O)O)C(=O)N[C@@H](CC(C)C)C(=O)N[C@@H](CC(C)C)C(=O)NCC(=O)N[C@@H](CCCCN)C(=O)N[C@@H](Cc1ccccc1)C(=O)N[C@@H](CC(C)C)C(=O)NCC(=O)N[C@@H](CC(N)=O)C(=O)N[C@@H](CC(N)=O)C(=O)O)C(C)C` [PSMα3, non-formylated], a half-maximal effect in [1] (EC50) was put at 257 nM. Further, on human neutrophils [2], the “pEC50, calcium ion flux” value is recorded as 5.19 ± 0.24.
In turn, `CC[C@H](C)[C@H](NC(=O)[C@H](Cc1c[nH]c2ccccc12)NC(=O)[C@H](CCCCN)NC(=O)[C@@H](NC(=O)[C@H](CC(C)C)NC(=O)[C@H](CC(=O)O)NC(=O)[C@H](CO)NC(=O)[C@@H](NC(=O)[C@@H](NC(=O)[C@H](CO)NC(=O)[C@@H](NC(=O)[C@@H](NC(=O)[C@H](CC(=O)O)NC(=O)[C@H](CCC(N)=O)NC(=O)[C@H](C)NC(=O)[C@@H](N)CCSC)[C@@H](C)CC)[C@@H](C)CC)[C@@H](C)O)[C@@H](C)CC)C(C)C)C(=O)N[C@H](C(=O)N[C@@H](CC(=O)O)C(=O)N[C@H](C(=O)N[C@H](C(=O)N[C@@H](CC(N)=O)C(=O)N[C@@H](CCCCN)C(=O)N[C@@H](Cc1ccccc1)C(=O)N[C@H](C(=O)N[C@@H](CCCCN)C(=O)N[C@@H](CCCCN)C(=O)O)[C@@H](C)O)C(C)C)[C@@H](C)O)[C@@H](C)CC` [δ-Toxin, non-formylated] had an EC50 in test [1] of 479 nM. Further, the “pEC50, calcium ion flux” value at human neutrophils [2] worked out at 5.20 ± 0.14.
LESIFRSLLFRVM-NH2 [MMK1]: in test [1] (62.5 nM (formylated PSMα3), 125 nM (formylated PSMα2), 250 nM (formylated δ-toxin, PSM-mec), 500 nM (formylated PSMsα1, α4, β1, β2), 2 µM (non-formylated PSMs), MMK1 10 nM), the “calcium flux activation of FPR2/ALX-transfected HL60” value is reported as “responded”.
Take “MDFTGVITSIIDLIKTCIQAFG [PSM-mec, formylated]”: the “chemotaxis of human neutrophils” value on human neutrophils [3] is reported as “induce chemotaxis”.
For WRWWWW-NH2 [WRW4], the “effect on numbers of live bacteria” value in test [4] was “no impact”. Moreover, the “inhibition of human FPR2/ALX” value in the test on human FPR2/ALX is given as “an inhibitor of human FPR2/ALX”. Besides, the “effect of WRW4 on mouse neutrophil stimulation by fMLF” value in the test on mouse neutrophils (fMLF 500 nM) was “not affected”. Also, the “effect of WRW4 on mouse neutrophil stimulation by MMK1 and PSMs” value in the test with mouse neutrophils (formylated PSMα3 250 nM, PSMα2 12.5 nM, δ-toxin 50 nM, MMK1 500 nM) is given as “potent antagonistic effect; also recorded: blocks”. Besides, the “inhibition of mouse FPR paralog Fpr-rs2” value in test [5] is on record as “inhibitor”.
Turning to fMLF, the “response to fMLF” value in test [6] is “hardly respond”. Moreover, the “calcium flux activation of FPR1-transfected HL60” value with FPR1-transfected HL60 is “responded”.
For pertussis toxin, the “effect of pertussis toxin on PSM-induced calcium flux” value in the test with human neutrophils [2] (PTX 1 µg/ml, three hours, 5% CO2) is given as “sensitive; also recorded: blocked”.
